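Where inhibition never reached the appropriate level, the endpoint shown equals the highest concentration tested. Otherwise, values were interpolated linearly from a five-concentration, 48-hour dose response in 96-well plates. GI50: concentration for 50% inhibition of growth.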 Active and inactive are the calls of the source. Cut-off read from the data, not from the text of the source: active = GI50 up to about 1.1 µM and inactive = higher.
Experiments:
Assay in all cases: growth of human tumour cells (NCI), 48 h
[1] = test system: HCC 2998
[2] = test system: EKVX
[3] = test system: SF-295
[4] = test system: NCI-H23
[5] = test system: OVCAR-5
[6] = test system: SF-268
[7] = test system: CCRF-CEM
[8] = test system: MOLT-4
[9] = test system: K562
[10] = test system: CAKI-1
[11] = test system: IGROV-1
[12] = test system: SK-MEL-5
[13] = test system: HL-60
[14] = test system: KM12
[15] = test system: HCT-116
[16] = test system: A549
[17] = test system: SNB-75
[18] = test system: A498

Measured: GI50

OC(c1ccccc1)(c1ccccc1)c1ccncc1
inactive: [1] > 100 µM | [2] > 100 µM | [3] > 100 µM | [4] > 100 µM | [5] > 100 µM | [6] > 100 µM | [7] > 100 µM | [8] > 100 µM | [9] > 100 µM | [10] > 100 µM | [11] > 100 µM | [12] > 100 µM | [13] > 100 µM | [14] > 100 µM | [15] > 100 µM | [16] > 100 µM | [17] 36.6 µM

N#Cc1nc(Nc2cccc3ccccc23)sc1N
inactive: [1] 20.3 µM | [3] 28.3 µM | [4] 14 µM | [5] 68.9 µM | [6] 20.4 µM | [8] 11.5 µM | [9] 25.8 µM | [10] 28.7 µM | [11] 45.1 µM | [13] 20.7 µM | [14] 30.2 µM | [15] 32.1 µM | [16] 26.5 µM | [17] 42.8 µM

CC(=O)NC(CCCNC(=O)NCCCl)C(=O)NCc1ccccc1 (configuration not stated)
inactive: [1] > 100 µM | [2] > 100 µM | [3] > 100 µM | [4] > 100 µM | [6] > 100 µM | [7] > 100 µM | [8] > 100 µM | [9] > 100 µM | [10] > 100 µM | [12] > 100 µM | [13] > 100 µM | [14] > 100 µM | [15] > 100 µM | [16] > 100 µM | [17] > 100 µM

CCOP(=O)(OCC)/C(C#N)=C/c1ccc[nH]1
inactive: [3] > 100 µM | [4] > 100 µM | [5] > 100 µM | [6] > 100 µM | [7] > 100 µM | [8] > 100 µM | [9] > 100 µM | [10] > 100 µM | [12] > 100 µM | [13] > 100 µM | [14] > 100 µM | [15] > 100 µM | [16] > 100 µM | [17] 55.7 µM

CCOC(C[C@H](O)[C@H]1COC(=S)S1)OCC
inactive: [1] > 100 µM | [2] > 100 µM | [3] > 100 µM | [4] > 100 µM | [6] > 100 µM | [11] > 100 µM | [12] > 100 µM | [13] > 100 µM | [14] > 100 µM | [15] > 100 µM | [16] > 100 µM

O=C(c1ccccc1)[C@H]1Nc2ccc(Cl)cc2C2c3ccccc3CC21 (some centres not stated)
inactive: [1] 19.9 µM | [3] 18.5 µM | [4] 60.3 µM | [5] > 100 µM | [6] > 100 µM | [8] 11.9 µM | [9] 25.6 µM | [10] > 100 µM | [11] > 100 µM | [12] 21.3 µM | [14] > 100 µM | [15] 26 µM | [16] 34.6 µM | [17] 20.8 µM

COc1cc2ccnc3c(=C(SC)SC)c(=O)c(c1OC)c23
inactive: [1] 16.4 µM | [2] > 10 µM | [3] 58.1 µM | [4] > 10 µM | [5] 20.9 µM | [6] 22.2 µM | [7] 2.86 µM | [8] 4.6 µM | [9] 3.29 µM | [10] 10.3 µM | [11] 21 µM | [12] > 10 µM | [13] 2.26 µM | [14] 22.4 µM | [16] 42.3 µM | [17] 10.2 µM

COc1ccc2nc3cc(Cl)ccc3c(Sc3ccccc3[N+](=O)[O-])c2c1
inactive: [1] > 100 µM | [2] > 100 µM | [3] > 100 µM | [4] > 100 µM | [5] > 100 µM | [18] > 100 µM | [6] > 100 µM | [7] > 100 µM | [8] > 100 µM | [9] > 100 µM | [10] > 100 µM | [11] > 100 µM | [12] > 100 µM | [14] > 100 µM | [15] > 100 µM | [16] > 100 µM | [17] 16.9 µM

C=C[C@@]1(C)CCC2(O)C(CCC3C2(C)CCC[C@@]3(C)COC(=O)CC(=O)OC)C1 (some centres not stated)
inactive: [1] 61.4 µM | [4] 20.6 µM | [5] 20.1 µM | [6] 22.5 µM | [7] 32.7 µM | [8] 17.2 µM | [9] 22.4 µM | [10] > 100 µM | [11] 26.5 µM | [12] 18 µM | [13] 19.2 µM | [14] 18.1 µM | [15] 18 µM | [16] 17.6 µM | [17] 19.9 µM

C=C1C(=O)O[C@H]2[C@H]1[C@H](OC(=O)/C(C)=C\C)CC(=C)[C@@H]1[C@H](O)[C@H]3O[C@@]3(C)[C@@]12O [EUPATUNDIN]
inactive: [1] > 100 µM | [2] > 100 µM | [3] > 100 µM | [4] > 100 µM | [6] > 100 µM | [7] > 100 µM | [9] > 100 µM | [10] > 100 µM | [11] > 100 µM | [12] > 100 µM | [14] > 100 µM | [15] > 100 µM | [16] > 100 µM | [17] > 100 µM

Source: ChEMBL document CHEMBL1201862, “PubChem BioAssay data set” (2004)
